Results from PMC8116058, “De novo macrocyclic peptides dissect energy coupling of a heterodimeric ABC transporter by multimode allosteric inhibition” (eLife, 2021).
Positions of bridges follow the written chain, without caps; N, C: chain ends. Non-standard residues stand in square brackets, D forms with d. Residues, ends and D or L forms follow the SMILES beside them. *: point of attachment. 5FAM = O=C1OC2(c3ccc(O)cc3Oc3cc(O)ccc32)c2ccc(C(=O)*)cc21; βAla = NCCC(=O)O

Tests used:
[1] = system: wild-type TmrAB in liposomes; experiment: Single-liposome flow cytometry transport assay; assay type: biochemical, Thermus thermophilus; conditions: for Peptide transport in two successive IF-to-OF cycles: 5 min 45°C / 60 min 4°C, repeated; for Transported C4^ATTO655, Peptides/liposome: TmrAB 0.4 µM, ATP 3 mM, ATP without CP 84.57, ADP 3.52; for Transported C4^ATTO655, Peptides/liposome / Peptides/liposome, time course / Mean fluorescence intensity * 10^3, time course: C4^ATTO655 1 µM; for Peptides/liposome, two consecutive transport cycles: ADP background corrected; for Peptides/liposome, time course: corrected by ADP background
Method: To investigate whether an IF-to-OF transition and conformational arrest by CP13^F or CP14^F can still result in a productive substrate translocation, we followed peptide transport by wild-type TmrAB by single liposome-based flow cytometry (Figure 6A). […] CPs block multiple-turnover transport monitored by quantitative flow cytometry. (A) Single turnover by IF-to-OF switch monitored by single-liposome flow cytometry. […] Transport reactions were stopped by the addition of EDTA (10 mM). 100,000 proteoliposomes were analyzed by flow cytometry monitoring fluorescein and ATTO655 intensities. […] (C, D) Slowdown of multiple-turnover substrate transport. […] Transported peptides per liposomes were evaluated and corrected by ADP background levels as described in (B). Transport kinetics were fitted monoexponentially. […] (E) Two consecutive transport cycles. […] Transported peptides per liposome were evaluated as described in (B) and corrected by background levels in the presence of ADP. […] Figure 6-source data 1. Source data for Figure 6. Figure 6-figure supplement 1. Linear regression of quantitative flow cytometry analysis. (A) Gating strategy. Liposomes were selected according to side and forward scatter areas. Single liposomes were gated based on the height of forward scatter correlated to the area of forward scatter. […] Detergent was removed, and liposomes were extensively washed by centrifugation. […] Equal concentrations of fluorescein served as loading control (right). (C) Linear regression. […] Mean values ± SD (n = 3) are shown. Figure 6-figure supplement 1-source data 1. Source Data for Figure 6-figure supplement 1. [drawing 5] […] To confirm the conformational arrest of wild-type TmrAB by CP13^F and the slow turnover in the presence of CP14^F, we examined two successive cycles of conformational transitions by flow cytometry. […] Both steps were repeated to yield two consecutive cycles of conformational transitions. […] Taken together, the macrocyclic peptides CP13 and CP14 stabilize a pre-hydrolysis state, thus allowing a single-turnover translocation along the IF-to-OF switch. […] Transport reactions were stopped by adding EDTA (10 mM). […] For regression analysis, liposomes were loaded with increasing amounts of peptides to convert the fluorescence intensities into the number of peptides per liposome ([Stefan et al., 2020]). […] Equal amounts of carboxyfluorescein (Sigma-Aldrich) served as loading control. Detergent was removed by adding SM-2 Bio-beads (Bio-Rad) as detailed above. Liposomes were harvested for 30 min at 270,000 g and washed three times by centrifugation. Generally, 20,000-100,000 proteoliposomes were selected according to sideward and forward scatter areas. Single events were selected based on the height of forward scatter plotted against the area of forward scatter. […] Data represent mean ± SD from three experiments.

TmrA^EQB = experiment: Nucleotide occlusion, catalytically reduced variant; assay type: biochemical, Thermus thermophilus; conditions: CP^F 4 µM; 5 min 45°C
Method: Figure 5. […] (A, B) CP6^F (A) or CP13^F (B, 50 nM each) were incubated with increasing concentrations of detergent-solubilized inward-facing TmrAB (in the absence of Mg-ATP) or outward-facing TmrA^EQB, which was trapped with Mg-ATP (1 mM) for 5 min at 45°C as described ([Hofmann et al., 2019]; [Stefan et al., 2020]). Immediately after, the fluorescence anisotropy was assayed at λex/em = 485/520 nm. The difference in fluorescence polarization was normalized to free and fully bound CP^F. Data were fitted by a one-site binding model. […] TmrAB (2 µM each) were mixed with CP^Fs (4 µM), ATP (1 mM, traced with [α^32P]-ATP), and MgCl2 (5 mM) for 5 min at 4°C or 45°C. Cold ATP (10 mM) was added, and freely exchangeable nucleotides were removed by rapid gel filtration. Occluded nucleotides were analyzed by thin layer chromatography and autoradiography. Representative radiograms for independent triplicates are shown. (D) Stably occluded nucleotides, [α^32P]-ATP and [α^32P]-ADP, were quantified by autoradiography. Data were normalized to the vanadate-trapped state. In (A, B, D), mean values ± SD (n = 3) are shown. Figure 5—source data 1. Source Data for Figure 5. Figure 5—figure supplement 1. […] (A) CP^Fs (50 nM each) were incubated with increasing concentrations of detergent-solubilized IF TmrAB in the inward-facing (IF) conformation (absence of Mg-ATP) or TmrA^EQB populated in the outward-facing (OF) conformation, which was trapped in the OF conformation by Mg-ATP (1 mM) after 5 min incubation at 45°C. The difference in fluorescence polarization was normalized to unbound (0%) and 100% bound CP^F. Data were fitted by a one-site binding model. Fluorescence anisotropy was recorded at λex/em = 485/520 nm. […] TmrA^EQB (2 µM) were incubated in the absence and presence of CP^Fs (4 µM each), ATP (1 mM, traced with [α^32P]-ATP), and MgCl2 (5 mM) for 5 min at 4°C or 45°C. Cold ATP (10 mM) was added, and free nucleotides were removed by rapid gel filtration. Occluded nucleotides were analyzed by thin layer chromatography and autoradiography. Representative radiograms for independent triplicates are shown. […] Figure 5—figure supplement 1—source data 1.
We also examined the impact of CP^Fs on the IF-to-OF transition of wild-type TmrAB induced by ATP binding through nucleotide occlusion (stable trapping) as the readout. We induced the IF-to-OF switch with radiotraced [α^32P]-ATP for 5 min at 45°C in the presence and absence of CPs and removed unbound nucleotides by rapid gel filtration. Subsequently, the occluded nucleotides were identified and quantified by thin layer chromatography and autoradiography (Figure 5C, D).
Detergent-solubilized TmrAB (2 µM) were incubated with ATP (1 mM) traced with [α^32P]-ATP (Hartmann Analytic), MgCl2 (5 mM), CP^Fs (4 µM), or orthovanadate (1 mM) for 5 min at 45°C. […]

[2] = time 5 min (after first 5 min at 45°C)
[3] = time 65 min (after 60 min at 4°C)
[4] = time 70 min (after second 5 min at 45°C)
[5] = time 130 min (after second 60 min at 4°C)

Q: Which results are given for `CC(C)C[C@@H]1NC(=O)[C@H](Cc2ccccc2)NC(=O)CNC(=O)[C@H](CO)NC(=O)[C@H](Cc2ccccc2)NC(=O)[C@H](CC(=O)O)NC(=O)[C@@H]2CCCN2C(=O)[C@H]([C@@H](C)O)NC(=O)[C@@H](Cc2ccc(O)cc2)NC(=O)CSC[C@@H](C(=O)NCC(=O)N[C@@H](CO)C(=O)NCCC(=O)NCCC(=O)N[C@@H](CCCNC(=N)N)C(=O)N[C@@H](CCCCNC(=O)c2ccc3c(c2)C(=O)OC32c3ccc(O)cc3Oc3cc(O)ccc32)C(N)=O)NC(=O)[C@H](C)NC(=O)[C@H](CC(N)=O)NC(=O)[C@H](CCCNC(=N)N)NC(=O)[C@H](CC(C)C)NC(=O)[C@H](Cc2ccccc2)NC(=O)[C@H](C)NC1=O` [CP12] ({CH2CO}-[dY]TPDFSGFLAFLRNACGS[βAla][βAla]RK(5FAM)-NH2; thioether N-16)?
A: Peptide transport in two successive IF-to-OF cycles [1]: peptide translocation was completely abrogated; Effect on C4^ATTO655 peptide translocation ([1]; CP^F 1 µM, 5 min 45°C): completely prevented C4^ATTO655 peptide translocation; Transported C4^ATTO655, Peptides/liposome ([1]; CP^F 1 µM, 5 min 45°C): 4.93 Peptides/liposome; Peptides/liposome, two consecutive transport cycles ([1]; time 0 min): 0.00 Peptides/liposome; Peptides/liposome, two consecutive transport cycles [1, 2]: 1.11 Peptides/liposome; Peptides/liposome, two consecutive transport cycles [1, 3]: 1.17 Peptides/liposome; Peptides/liposome, two consecutive transport cycles [1, 4]: 1.70 Peptides/liposome; Peptides/liposome, two consecutive transport cycles [1, 5]: 1.01 Peptides/liposome; Effect on ATP occlusion, TmrA^EQB (TmrA^EQB): inhibited ATP occlusion

Q: For `CC[C@H](C)[C@@H]1NC(=O)[C@H](Cc2c[nH]c3ccccc23)NC(=O)[C@H](CC(N)=O)NC(=O)[C@H](C)NC(=O)[C@H](CO)NC(=O)[C@@H]2CCCN2C(=O)[C@H](CC(=O)O)NC(=O)[C@@H](Cc2ccc(O)cc2)NC(=O)CSC[C@@H](C(=O)NCC(=O)N[C@@H](CO)C(=O)NCCC(=O)NCCC(=O)N[C@@H](CCCNC(=N)N)C(=O)N[C@@H](CCCCNC(=O)c2ccc3c(c2)C(=O)OC32c3ccc(O)cc3Oc3cc(O)ccc32)C(N)=O)NC(=O)[C@H]([C@@H](C)O)NC(=O)[C@H](CC(C)C)NC(=O)[C@H](CC(C)C)NC(=O)[C@H](C(C)C)NC(=O)[C@H](CC(C)C)NC1=O` [CP13] ({CH2CO}-[dY]DPSANWILVLLTCGS[βAla][βAla]RK(5FAM)-NH2; thioether N-14; C-terminus assumed), which “Peptides/liposome, time course” value ([1]; 1 min at 45°C, CP^F 1 µM) is on record?
A: -0.42 Peptides/liposome

Q: What about the “Mean fluorescence intensity * 10^3, time course” value ([1]; 1 min at 45°C, CP^F 1 µM, without CP 2.29) of the same compound?
A: -0.03 * 10^3

Q: And the “Peptides/liposome, time course” value ([1]; 3 min at 45°C, CP^F 1 µM)?
A: 2.53 Peptides/liposome

Q: What about the “Mean fluorescence intensity * 10^3, time course” value ([1]; 3 min at 45°C, CP^F 1 µM, without CP 10.49) of the same compound?
A: 0.17 * 10^3

Q: And the “Peptide transport in two successive IF-to-OF cycles” value [1]?
A: peptide transport was exclusively observed along the first IF-to-OF switch

Q: And the “Peptides/liposome, time course” value ([1]; 5 min at 45°C, CP^F 1 µM)?
A: 3.33 Peptides/liposome

Q: And the “Mean fluorescence intensity * 10^3, time course” value ([1]; 5 min at 45°C, CP^F 1 µM, without CP 18.11)?
A: 0.23 * 10^3

Q: And the “Peptides/liposome, time course” value ([1]; 10 min at 45°C, CP^F 1 µM)?
A: 5.08 Peptides/liposome

Q: What about the “Mean fluorescence intensity * 10^3, time course” value ([1]; 10 min at 45°C, CP^F 1 µM, without CP 30.27) of the same compound?
A: 0.35 * 10^3

Q: What about the “Peptides/liposome, time course” value ([1]; 20 min at 45°C, CP^F 1 µM) of the same compound?
A: 4.95 Peptides/liposome

Q: And the “Mean fluorescence intensity * 10^3, time course” value ([1]; 20 min at 45°C, CP^F 1 µM, without CP 40.72)?
A: 0.34 * 10^3

Q: What about the “Peptides/liposome, time course” value ([1]; 40 min at 45°C, CP^F 1 µM) of the same compound?
A: 5.22 Peptides/liposome

Q: And the “Mean fluorescence intensity * 10^3, time course” value ([1]; 40 min at 45°C, CP^F 1 µM, without CP 51.44)?
A: 0.36 * 10^3

Q: What about the “C4^ATTO655 peptides per liposome transported along a single IF-to-OF switch” value ([1]; CP^F 1 µM, 5 min 45°C, ~30 transport-competent TmrAB per liposome) of the same compound?
A: approx. 10 peptides per liposome

Q: What about the “Transported C4^ATTO655, Peptides/liposome” value ([1]; CP^F 1 µM, 5 min 45°C) of the same compound?
A: 13.69 Peptides/liposome

Q: What about the “Peptide transport rate compared to control without CP^Fs” value ([1]; period of 40 min at 45°C) of the same compound?
A: drastically reduced the peptide transport rate

Q: And the “Turnover of wild-type TmrAB over long-term incubation” value ([1]; period of 40 min at 45°C)?
A: a single turnover driving peptide transport was observed

Q: And the “Peptides/liposome, two consecutive transport cycles” value ([1]; time 0 min)?
A: 0.00 Peptides/liposome

Q: What about the “Peptides/liposome, two consecutive transport cycles” value [1, 2] of the same compound?
A: 9.32 Peptides/liposome

Q: What about the “Peptides/liposome, two consecutive transport cycles” value [1, 3] of the same compound?
A: 10.24 Peptides/liposome

Q: What about the “Peptides/liposome, two consecutive transport cycles” value [1, 4] of the same compound?
A: 10.66 Peptides/liposome

Q: What about the “Peptides/liposome, two consecutive transport cycles” value [1, 5] of the same compound?
A: 11.66 Peptides/liposome

Q: What about the “Period of conformational arrest of wild-type TmrAB” value ([1]; two consecutive cycles) of the same compound?
A: 2 h

Q: And the “Effect on ATP occlusion, TmrA^EQB” value (TmrA^EQB)?
A: ATP is occluded in the presence or absence
